Target: T1, human FFAR1 (GPR40) (Homo sapiens, UniProt O14842)
T1 construct: Flag; expressed in transfected cells; host or cells: HEK293T
Experiment: NFAT-RE-based reporter gene activity assay (Dual-Glo luciferase) for GPR40 agonistic activity in co-transfected HEK293T cells
Assay type: cell-based
Conditions: 4-hour treatment; for Efficacy (%): class symbols
Text: The pcDNA3.0-flag-FFAR1 (GPR40) plasmid was constructed using conventional molecular cloning methods. The main steps were as follows: The full-length cDNA sequence of human FFAR1 (GPR40) (NM_005303.3) was inserted into the HindIII and XbaI restriction sites of the pcDNA3.0 vector via PCR technology, resulting in the pcDNA3.0-flag-FFAR1 (GPR40) plasmid; pGL4.30 [luc2P NFAT-RE] (# E8481) and pRL-TK (#E2241) plasmids were both purchased from Promega; the plasmids were transformed into DH5α E. coli using the CaCl2 method, further cultured and amplified, and then purified using a plasmid extraction kit (TIANGEN, # DP117) to obtain the corresponding plasmid DNA.
HEK293T cells were seeded in a 96-well plate at a density of 1 × 10^4/well one day prior to plasmid transfection. Cell transfection was performed according to the instructions of the transfection reagent FuGENE® HD (Promega, # E2311). The main steps were as follows: Taking one well as an example, plasmids pcDNA3.0-flag-FFAR1 (GPR40), pGL4.30 [luc2P NFAT-RE], and pRL-TK were added at ratios of 50 ng, 50 ng, and 5 ng, respectively, into 10 µL of Opti-MEM™ I medium (Gibco, #11058021) and mixed thoroughly; then, 0.2 µL of FuGENE® HD was added, mixed thoroughly, and allowed to stand at room temperature for 5 minutes; finally, this 10 µL mixture was added to the cell well containing 100 µL of culture medium. 24 hours after co-transfection, the compounds were serially diluted at half-logarithmic intervals with 1 µM as the highest concentration, resulting in 10 concentration gradients, which were added to the cell culture medium for a 4-hour treatment.
After 4 hours of compound treatment, the cells were assayed according to the instructions of the Dual-Glo® Luciferase Assay System (Promega, # E2940). The main steps were as follows: 50 µL of culture medium was aspirated from each well and discarded, followed by the addition of 50 µL of Dual-Glo® Luciferase Reagent, and the mixture was shaken at room temperature for 10 minutes. Then, 80 µL of the lysate reaction solution was transferred to a white opaque optiPlate-96 well plate, and the luminescence signal of Firefly luciferase (Firefly-Luc) was measured using an MD i3x multifunctional microplate reader. Subsequently, 40 µL of Dual-Glo® Stop & Glo® Reagent was added, and the mixture was shaken at room temperature for 10 minutes. Finally, the luminescence signal of Renilla luciferase (Renilla-Luc) was measured using the MD i3x multifunctional microplate reader. The ratio of Firefly-Luc/Renilla-Luc was used as the compound's agonistic activity toward GPR40, and normalization was performed using the ratio of the solvent DMSO group. A dose-response curve was fitted using a four-parameter model with GraphPad Prism 8.0 software to calculate the EC50 value.

T1 sequence (O14842 whole entry): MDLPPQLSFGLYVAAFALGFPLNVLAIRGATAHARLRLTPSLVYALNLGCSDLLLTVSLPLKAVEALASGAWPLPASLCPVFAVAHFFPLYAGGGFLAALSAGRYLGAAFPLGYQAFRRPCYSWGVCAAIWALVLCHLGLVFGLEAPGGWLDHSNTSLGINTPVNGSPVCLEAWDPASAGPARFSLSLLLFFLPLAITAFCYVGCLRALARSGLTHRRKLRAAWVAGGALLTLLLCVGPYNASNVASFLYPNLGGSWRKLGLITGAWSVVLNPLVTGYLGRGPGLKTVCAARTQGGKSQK

## CNC(=O)C(C)(C)n1cc(-c2c(C3CCN(c4cccc(OC)c4)CC3)oc3cc(C(CC(=O)O)C4CC4)ccc23)cn1 (stereo not shown) [Compound 52]
  EC50: 100 to 500 nM
  Efficacy (%): † (100 ≥ Efficacy (%) > 50)

## COc1cccc(N2CCC(c3oc4cc(C(CC(=O)O)C5CC5)ccc4c3-c3cnn(C(C)(C)C(=O)N(C)C)c3)CC2)c1 (stereo not shown) [Compound 53]
  EC50: 100 to 500 nM
  Efficacy (%): †† (150 ≥ Efficacy (%) > 100)

## COc1cccc(N2CCC(c3oc4cc([C@H](C5CC5)C(F)C(=O)O)ccc4c3-c3cnn(C(C)(C)C)c3)CC2)c1 (stereo partly shown) [Compound 54]
  EC50: 10 to 100 nM
  Efficacy (%): †† (150 ≥ Efficacy (%) > 100)

## COc1cccc(N2CCC(c3oc4cc([C@H](C5CC5)C(C)C(=O)O)ccc4c3-c3cnn(C(C)(C)C)c3)CC2)c1 (stereo partly shown) [Compound 55]
  EC50: ≤ 10 nM
  Efficacy (%): †† (150 ≥ Efficacy (%) > 100)

## COc1cccc(N2CCC(c3oc4cc(C(CCO)C5CC5)ccc4c3-c3cnn(C(C)(C)C)c3)CC2)c1 (stereo not shown) [Compound 56]
  EC50: 100 to 500 nM
  Efficacy (%): † (100 ≥ Efficacy (%) > 50)

## COc1cccc(N2CCC(c3oc4cc(CC(C)C(=O)O)ccc4c3-c3cnn(C(C)(C)C)c3)CC2)c1 (stereo not shown) [Compound 60]
  EC50: 100 to 500 nM
  Efficacy (%): †† (150 ≥ Efficacy (%) > 100)

## CCC(Cc1ccc2c(-c3cnn(C(C)(C)C)c3)c(C3CCN(c4cccc(OC)c4)CC3)oc2c1)C(=O)O (stereo not shown) [Compound 61]
  EC50: 100 to 500 nM
  Efficacy (%): †† (150 ≥ Efficacy (%) > 100)

## COc1cccc(N2CCC(c3oc4cc(OC(C)C(=O)O)ccc4c3-c3cnn(C(C)(C)C)c3)CC2)c1 (stereo not shown) [Compound 65]
  EC50: 100 to 500 nM
  Efficacy (%): †† (150 ≥ Efficacy (%) > 100)

## CCC(CC(=O)O)c1ccc2c(-c3cnn(C(C)(C)C)c3)c(C3CCN(c4cccc(OC)c4)CC3)oc2c1 (stereo not shown) [Compound 66]
  EC50: 100 to 500 nM
  Efficacy (%): †† (150 ≥ Efficacy (%) > 100)

## COc1cccc(N2CCC(c3oc4cc(C(CP(=O)(O)OC)C5CC5)ccc4c3-c3cnn(C(C)(C)C)c3)CC2)c1 (stereo not shown) [Compound 70]
  EC50: > 500 nM
  Efficacy (%): †† (150 ≥ Efficacy (%) > 100)

## COc1cccc(N2CCC(c3oc4cc([C@H](C5CC5)C(C)(C)C(N)=O)ccc4c3-c3cnn(C(C)(C)C)c3)CC2)c1 [Compound 71]
  EC50: 100 to 500 nM
  Efficacy (%): †† (150 ≥ Efficacy (%) > 100)

## COc1cccc(N2CCC(c3oc4cc(C(CC(=O)O)C5CC5)ccc4c3-c3cnn(C(C)(C)C)c3)CC2)n1 (stereo not shown) [Compound 79]
  EC50: 100 to 500 nM
  Efficacy (%): †† (150 ≥ Efficacy (%) > 100)

## COc1cccc(N2CCC(c3oc4cc([C@@H](CC(=O)O)C5CC5)ccc4c3-c3ccc4c(c3)C3(CCCCC3)c3ccccc3-4)CC2)c1 [Compound 81]
  EC50: 100 to 500 nM
  Efficacy (%): † (100 ≥ Efficacy (%) > 50)

## CNC(=O)c1cc(-c2c(C3CCN(c4cccc(OC)c4)CC3)oc3cc(C(CC(=O)O)C4CC4)ccc23)cn1C (stereo not shown) [Compound 82]
  EC50: 100 to 500 nM
  Efficacy (%): † (100 ≥ Efficacy (%) > 50)

## COc1ccnc(N2CCC(c3oc4cc(C(CC(=O)O)C5CC5)ccc4c3-c3cnn(C(C)(C)C)c3)CC2)c1 (stereo not shown) [Compound 83]
  EC50: 100 to 500 nM
  Efficacy (%): † (100 ≥ Efficacy (%) > 50)

## COc1ccc(OC)c(N2CCC(c3oc4cc(C(CC(=O)O)C5CC5)ccc4c3-c3cnn(C(C)(C)C)c3)CC2)c1 (stereo not shown) [Compound 85]
  EC50: 100 to 500 nM
  Efficacy (%): †† (150 ≥ Efficacy (%) > 100)

## COc1cccc(N2CCC(c3oc4cc(C(CC(=O)O)C5CC5)ccc4c3-c3cnn(C(C)(C)C)c3)CC2)c1F (stereo not shown) [Compound 86]
  EC50: 10 to 100 nM
  Efficacy (%): ††† (Efficacy (%) > 150)

## COc1cccc(N2CCC(c3oc4cc([C@@H](CC(=O)O)C5CC5)ccc4c3-c3cnn(C(C)(C)C)c3)CC2)c1F [Compound 87]
  EC50: 10 to 100 nM
  Efficacy (%): †† (150 ≥ Efficacy (%) > 100)

## COc1cccc(N2CCC(c3oc4cc(C(CC(=O)O)C5CC5)ccc4c3-c3cnn(C(C)(C)C)c3)CC2)c1Cl (stereo not shown) [Compound 88]
  EC50: 100 to 500 nM
  Efficacy (%): †† (150 ≥ Efficacy (%) > 100)

## COc1ccc(Cl)c(N2CCC(c3oc4cc(C(CC(=O)O)C5CC5)ccc4c3-c3cnn(C(C)(C)C)c3)CC2)c1 (stereo not shown) [Compound 90]
  EC50: 100 to 500 nM
  Efficacy (%): † (100 ≥ Efficacy (%) > 50)

## CNC(=O)c1ccc(OC)cc1N1CCC(c2oc3cc(C(CC(=O)O)C4CC4)ccc3c2-c2cnn(C(C)(C)C)c2)CC1 (stereo not shown) [Compound 91]
  EC50: 100 to 500 nM
  Efficacy (%): † (100 ≥ Efficacy (%) > 50)

## COc1ccc(C(=O)N(C)CC(C)(C)C)c(N2CCC(c3oc4cc([C@@H](CC(=O)O)C5CC5)ccc4c3-c3cnn(C(C)(C)C)c3)CC2)c1 [Compound 92]
  EC50: 100 to 500 nM
  Efficacy (%): ††† (Efficacy (%) > 150)

## COc1ccc(C(=O)N(C)c2ccccc2)c(N2CCC(c3oc4cc([C@@H](CC(=O)O)C5CC5)ccc4c3-c3cnn(C(C)(C)C)c3)CC2)c1 [Compound 93]
  EC50: 100 to 500 nM
  Efficacy (%): ††† (Efficacy (%) > 150)

## COc1ccc(C(=O)Nc2cccc(C)n2)c(N2CCC(c3oc4cc(C(CC(=O)O)C5CC5)ccc4c3-c3cnn(C(C)(C)C)c3)CC2)c1 (stereo not shown) [Compound 94]
  EC50: 100 to 500 nM
  Efficacy (%): † (100 ≥ Efficacy (%) > 50)

## CCCCCCNC(=O)c1ccc(OC)cc1N1CCC(c2oc3cc(C(CC(=O)O)C4CC4)ccc3c2-c2cnn(C(C)(C)C)c2)CC1 (stereo not shown) [Compound 95]
  EC50: 100 to 500 nM
  Efficacy (%): †† (150 ≥ Efficacy (%) > 100)

## CC(C)(C)n1cc(-c2c(C3CCN(c4ccc5c(c4)OC(F)(F)O5)CC3)oc3cc([C@@H](CC(=O)O)C4CC4)ccc23)cn1 [Compound 96]
  EC50: 100 to 500 nM
  Efficacy (%): ††† (Efficacy (%) > 150)

## CC(C)(C)n1cc(-c2c(C3CCN(c4ccc5c(c4)OCO5)CC3)oc3cc([C@@H](CC(=O)O)C4CC4)ccc23)cn1 [Compound 97]
  EC50: 10 to 100 nM
  Efficacy (%): †† (150 ≥ Efficacy (%) > 100)

## COc1ccc(F)c(N2CCC(c3oc4cc(C(CC(=O)O)C5CC5)ccc4c3-c3cnn(-c4ccccc4)c3)CC2)c1 (stereo not shown) [Compound 99]
  EC50: 100 to 500 nM
  Efficacy (%): †† (150 ≥ Efficacy (%) > 100)

## COc1cccc(N2CCC(c3oc4cc(C(CC(=O)O)C5CC5)ccc4c3-c3cnc(C)s3)CC2)c1 (stereo not shown) [Compound 101]
  EC50: 100 to 500 nM
  Efficacy (%): †† (150 ≥ Efficacy (%) > 100)

## COc1cccc(N2CCC(c3oc4cc([C@@H](CC(=O)O)C5CC5)ccc4c3-c3cnc(C(C)C)s3)CC2)c1 [Compound 102]
  EC50: 10 to 100 nM
  Efficacy (%): †† (150 ≥ Efficacy (%) > 100)

## COc1cccc(N2CCC(c3oc4cc([C@@H](CC(=O)O)C5CC5)ccc4c3-c3cnc(C(C)(C)C)s3)CC2)c1 [Compound 103]
  EC50: 10 to 100 nM
  Efficacy (%): †† (150 ≥ Efficacy (%) > 100)

## COc1cccc(N2CCC(c3oc4cc(C(CC(=O)O)C5CC5)ccc4c3-c3cn(C(C)C)cn3)CC2)c1 (stereo not shown) [Compound 104]
  EC50: > 500 nM
  Efficacy (%): †† (150 ≥ Efficacy (%) > 100)

## COc1cccc(N2CCC(c3oc4cc([C@@H](CC(=O)O)C5CC5)ccc4c3-c3csc(OC)n3)CC2)c1 [Compound 105]
  EC50: 10 to 100 nM
  Efficacy (%): †† (150 ≥ Efficacy (%) > 100)

## COc1cccc(N2CCC(c3oc4cc(C(CC(=O)O)C5CC5)ccc4c3-c3csc(C(C)C)n3)CC2)c1 (stereo not shown) [Compound 106]
  EC50: 10 to 100 nM
  Efficacy (%): †† (150 ≥ Efficacy (%) > 100)

## COc1cccc(N2CCC(c3oc4cc([C@@H](CC(=O)O)C5CC5)ccc4c3-c3csc(C(C)C)n3)CC2)c1 [Compound 107]
  EC50: 100 to 500 nM
  Efficacy (%): ††† (Efficacy (%) > 150)

— patent EP4682145A1, “BENZOHETEROCYCLIC COMPOUND, AND PREPARATION METHOD THEREFOR AND USE THEREOF” (Cascade Pharmaceuticals, Inc., priority 2023, dated 2024)
